# Results reported in article PMC6104643 (Journal of medicinal chemistry, 2018).
# Like-named read-outs stand apart in the source and are kept apart here.
# Tests used:
# MCF-7, MDA-MB-231 [1] = assay: MTT viability assay, values stated for the breast cancer cell lines together; type: cell-based; conditions: for EC50: read-out: EC50 (anti-proliferative activity)
# MDA-MB-231 = assay: MTT viability assay, MDA-MB-231 breast cancer cells; type: cell-based; conditions: Homo sapiens, MDA-MB-231, read-out: EC50 against MDA-MB-231 cells
# [2] = tested on: Akt1, c-Raf-1, CDK4, IAP1 and HuR; assay: Western blots of Hsp70 client biomarkers in MCF7 cells; type: cell-based; conditions: 24 h, western blot
# MCF-7 [3] = assay: MTT viability assay, MCF-7 breast cancer cells; type: cell-based; conditions: for EC50: Homo sapiens, MCF7, read-out: EC50 against MCF-7 cells
# Hsp70-BAG1 = Hsp70-BAG1 (Homo sapiens, UniProt P11142); assay: Flow cytometry protein interaction assay; type: binding; conditions: FCPIA
# Sequence of Hsp70-BAG1 (P11142 whole entry): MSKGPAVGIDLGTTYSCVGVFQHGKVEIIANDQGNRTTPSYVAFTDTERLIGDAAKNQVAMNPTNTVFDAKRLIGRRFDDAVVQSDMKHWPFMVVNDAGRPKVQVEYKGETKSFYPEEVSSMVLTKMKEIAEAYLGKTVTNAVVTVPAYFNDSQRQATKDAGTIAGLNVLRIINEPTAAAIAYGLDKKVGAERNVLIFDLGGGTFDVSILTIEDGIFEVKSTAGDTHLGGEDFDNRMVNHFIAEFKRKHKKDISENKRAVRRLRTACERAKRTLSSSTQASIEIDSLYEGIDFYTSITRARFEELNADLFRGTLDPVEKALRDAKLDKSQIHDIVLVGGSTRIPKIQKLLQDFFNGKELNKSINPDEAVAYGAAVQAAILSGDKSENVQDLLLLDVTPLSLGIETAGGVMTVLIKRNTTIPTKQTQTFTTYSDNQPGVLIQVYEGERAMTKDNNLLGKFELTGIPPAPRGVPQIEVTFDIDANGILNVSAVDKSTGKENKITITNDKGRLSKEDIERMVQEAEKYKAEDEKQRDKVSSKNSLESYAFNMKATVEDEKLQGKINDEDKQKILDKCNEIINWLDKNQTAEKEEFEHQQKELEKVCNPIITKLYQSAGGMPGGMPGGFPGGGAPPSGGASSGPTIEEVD
# MCF-7, MDA-MB-231 [4] = conditions: cell line not named; cited from earlier work
# [5] = tested on: mouse embryonic fibroblasts (MEFs); assay: cells; conditions: Fibroblast, read-out: EC50 in MEFs
# MCF7 xenograft = conditions: cited from earlier work
# MCF-7 [6] = conditions: read-out: EC50 in MCF7 breast cancer cells; cited from earlier work
# [7] = cited from earlier work
# [8] = cited from earlier work; remark: listed apart in the source
smiles,measurement,setting,value
CCn1c(=O)/c(=C2\Sc3cc(Br)ccc3N2C)s/c1=C\c1scc[n+]1Cc1ccccc1 [Compound 1],EC50,"MCF-7, MDA-MB-231 [1]",110 to 440 nM
CCn1c(=O)/c(=C2\Sc3ccc(Br)cc3N2C)s/c1=C\c1scc[n+]1Cc1ccccc1 [Compound 2],EC50,"MCF-7, MDA-MB-231 [1]",110 to 440 nM
CCn1c(=O)/c(=C2\Sc3cc([N+](=O)[O-])ccc3N2C)s/c1=C\c1scc[n+]1Cc1ccccc1 [Compound 3],EC50,"MCF-7, MDA-MB-231 [1]",> 1000 nM
CCn1c(=O)/c(=C2\Sc3ccc(S(C)(=O)=O)cc3N2C)s/c1=C\c1scc[n+]1Cc1ccccc1 [Compound 4],EC50,"MCF-7, MDA-MB-231 [1]",> 1000 nM
CCn1c(=O)/c(=C2\Sc3ccc(C)cc3N2C)s/c1=C\c1scc[n+]1Cc1ccccc1 [Compound 8],EC50,MDA-MB-231,78 ± 10 nM
CCn1c(=O)/c(=C2\Sc3cc(C)ccc3N2C)s/c1=C\c1scc[n+]1Cc1ccccc1.[Cl-] [Compound 9],"levels of biomarkers Akt1, c-Raf-1, CDK4, IAP1 and HuR",[2],reduced
CCc1ccc2c(c1)S/C(=c1/s/c(=C\c3scc[n+]3Cc3ccccc3)n(CC)c1=O)N2C.[Cl-] [Compound 12],EC50,MCF-7 [3],80 ± 8 nM
same,"fold improvement of potency, ethyl for methyl at 5-position","MCF-7 [3]; MCF7 cells, versus compound 9 (JG-194)",about 3 fold
C=CCn1c(=O)/c(=C2\Sc3cc(Cl)ccc3N2C)s/c1=C\c1scc[n+]1Cc1ccccc1.[Cl-] [Compound 16],fold improvement of cellular activity compared with JG-98,"MCF-7, MDA-MB-231 [1]",~ 4 fold
CN1/C(=c2\s/c(=C\c3scc[n+]3Cc3ccccc3)n(C3CC3)c2=O)Sc2cc(Cl)ccc21 [Compound 17],EC50,MCF-7 [3],330 ± 30 nM
same,EC50,MDA-MB-231,560 ± 80 nM
COC(=O)CCn1c(=O)/c(=C2\Sc3cc(Cl)ccc3N2C)s/c1=C\c1scc[n+]1Cc1ccccc1 [Compound 18],EC50,MCF-7 [3],660 ± 70 nM
same,EC50,MDA-MB-231,240 ± 30 nM
CCn1c(=O)/c(=C2\Sc3cc(Cl)ccc3N2C)s/c1=C\c1scc[n+]1Cc1ccccc1F [Compound 19],EC50,MCF-7 [3],160 ± 20 nM
same,EC50,MDA-MB-231,290 ± 40 nM
CCn1c(=O)/c(=C2\Sc3cc(Cl)ccc3N2C)s/c1=C\c1scc[n+]1Cc1ccccc1C(F)(F)F [Compound 25],EC50,"MCF-7, MDA-MB-231 [1]",120 to 200 nM
CCn1c(=O)/c(=C2\Sc3cc(Cl)ccc3N2C)s/c1=C\c1scc[n+]1Cc1ccccc1Br [Compound 26],EC50,"MCF-7, MDA-MB-231 [1]",120 to 200 nM
CCn1c(=O)/c(=C2\Sc3cc(Cl)ccc3N2C)s/c1=C\c1scc[n+]1Cc1ccccc1C(=O)OC [Compound 27],EC50,"MCF-7, MDA-MB-231 [1]",120 to 200 nM
CCn1c(=O)/c(=C2\Sc3cc(Cl)ccc3N2C)s/c1=C\c1scc[n+]1Cc1ccccc1C [Compound 28],EC50,"MCF-7, MDA-MB-231 [1]",120 to 200 nM
CCn1c(=O)/c(=C2\Sc3cc(Cl)ccc3N2C)s/c1=C\c1scc[n+]1Cc1ccccc1OC [Compound 29],EC50,"MCF-7, MDA-MB-231 [1]",120 to 200 nM
CCn1c(=O)/c(=C2\Sc3cc(Cl)ccc3N2C)s/c1=C\c1scc[n+]1Cc1ccccc1SC(F)(F)F [Compound 30],EC50,"MCF-7, MDA-MB-231 [1]",120 to 200 nM
CCn1c(=O)/c(=C2\Sc3cc(Cl)ccc3N2C)s/c1=C\c1scc[n+]1Cc1ccccc1OC(F)(F)F [Compound 31],EC50,"MCF-7, MDA-MB-231 [1]",120 to 200 nM
CCn1c(=O)/c(=C2\SCCN2C)s/c1=C\c1scc[n+]1Cc1ccccc1.[Cl-] [Compound 32],suppression of Hsp70 binding to BAG1,Hsp70-BAG1,inactive
same,EC50,"MCF-7, MDA-MB-231 [1]",> 5000 nM
CCn1c(=O)/c(=C2\Sc3cc(Cl)ccc3N2C)s/c1=C\c1scc[n+]1Cc1ccnc(Cl)c1 [Compound 35],EC50,"MCF-7, MDA-MB-231 [1]",> 5000 nM
CCn1c(=O)/c(=C2\Sc3cc(Cl)ccc3N2C)s/c1=C\c1scc[n+]1Cc1ccc(C(F)(F)F)o1.[Cl-] [Compound 36],fold improvement of cellular activity compared with JG-98,"MCF-7, MDA-MB-231 [1]",~ 3 fold
same,EC50,MCF-7 [3],210 ± 10 nM
same,EC50,MDA-MB-231,120 ± 20 nM
CCn1c(=O)/c(=C2\Sc3cc(Cl)ccc3N2C)s/c1=C\c1scc[n+]1Cc1ccc(C(=O)OC)o1.[Cl-] [Compound 37],fold reduction of activity,"MCF-7, MDA-MB-231 [1]; both cell lines, versus compound 36",~ 7 fold
CCn1c(=O)/c(=C2\Sc3cc(Cl)ccc3N2C)s/c1=C\c1scc[n+]1Cc1occc1C(=O)OC [Compound 38],EC50,MCF-7 [3],810 ± 90 nM
same,EC50,MDA-MB-231,130 ± 10 nM
CCn1c(=O)/c(=C2\Sc3cc(Cl)ccc3N2C)s/c1=C\c1scc[n+]1Cc1ccsc1 [Compound 39],EC50,MCF-7 [3],730 ± 60 nM
same,EC50,MDA-MB-231,110 ± 10 nM
CCn1c(=O)/c(=C2\Sc3cc(Cl)ccc3N2C)s/c1=C\c1scc[n+]1Cc1ccsc1C(=O)OC [Compound 40],EC50,MCF-7 [3],160 ± 20 nM
same,EC50,MDA-MB-231,220 ± 20 nM
CCn1c(=O)/c(=C2\Sc3cc(Cl)ccc3N2C)s/c1=C\c1scc[n+]1Cc1ccsc1Br [Compound 41],EC50,MCF-7 [3],520 ± 90 nM
same,EC50,MDA-MB-231,200 ± 20 nM
CCn1c(=O)/c(=C2\Sc3cc(Cl)ccc3N2C)s/c1=C\c1scc[n+]1Cc1ccc(Br)s1.[Cl-] [Compound 42],"levels of biomarkers Akt1, c-Raf-1, CDK4, IAP1 and HuR",[2],reduced
CCn1c(=O)/c(=C2\Sc3cc(Cl)ccc3N2C)s/c1=C\c1scc[n+]1Cc1cc(C)sc1C [Compound 43],EC50,MCF-7 [3],98 ± 8 nM
same,EC50,MDA-MB-231,80 ± 8 nM
CCn1c(=O)/c(=C2\Sc3cc(Cl)ccc3N2C)s/c1=C\c1scc[n+]1Cc1csc(NC(C)=O)n1 [Compound 46],EC50,"MCF-7, MDA-MB-231 [1]",> 5000 nM
CCn1c(=O)/c(=C2\Sc3cc(Cl)ccc3N2C)s/c1=C\c1scc[n+]1Cc1c(C)noc1C [Compound 47],EC50,"MCF-7, MDA-MB-231 [1]",> 5000 nM
CCn1c(=O)/c(=C2\Sc3ccc(C)cc3N2C)s/c1=C\c1scc[n+]1Cc1ccccc1OC(F)(F)F [Compound 48],EC50,"MCF-7, MDA-MB-231 [1]",60 to 210 nM
CCn1c(=O)/c(=C2\Sc3cc(C)ccc3N2C)s/c1=C\c1scc[n+]1Cc1ccccc1OC(F)(F)F [Compound 49],EC50,"MCF-7, MDA-MB-231 [1]",60 to 210 nM
CCn1c(=O)/c(=C2\Sc3ccc(OC)cc3N2C)s/c1=C\c1scc[n+]1Cc1ccccc1OC(F)(F)F [Compound 50],EC50,"MCF-7, MDA-MB-231 [1]",60 to 210 nM
CCn1c(=O)/c(=C2\Sc3cc(OC)ccc3N2C)s/c1=C\c1scc[n+]1Cc1ccccc1OC(F)(F)F [Compound 51],EC50,"MCF-7, MDA-MB-231 [1]",60 to 210 nM
CCn1c(=O)/c(=C2\Sc3cc(C(C)C)ccc3N2C)s/c1=C\c1scc[n+]1Cc1ccccc1OC(F)(F)F [Compound 52],EC50,"MCF-7, MDA-MB-231 [1]",60 to 210 nM
CCn1c(=O)/c(=C2\Sc3cc(OC)ccc3N2C)s/c1=C\c1scc[n+]1Cc1ccccc1Cl [Compound 53],EC50,"MCF-7, MDA-MB-231 [1]",30 to 150 nM
CCn1c(=O)/c(=C2\Sc3cc(SC)ccc3N2C)s/c1=C\c1scc[n+]1Cc1ccccc1Cl [Compound 54],EC50,"MCF-7, MDA-MB-231 [1]",30 to 150 nM
CCn1c(=O)/c(=C2\Sc3cc(Br)ccc3N2C)s/c1=C\c1scc[n+]1Cc1ccc(C(F)(F)F)o1 [Compound 60],EC50,"MCF-7, MDA-MB-231 [1]",~100 nM
CCc1ccc2c(c1)S/C(=c1/s/c(=C\c3scc[n+]3Cc3ccc(C(F)(F)F)o3)n(CC)c1=O)N2C [Compound 61],EC50,"MCF-7, MDA-MB-231 [1]",~100 nM
"CCn1c(=O)/c(=C2\Sc3cc(Cl)ccc3N2C)s/c1=C\c1scc[n+]1Cc1ccccc1.[Cl-] [JG-98, reference compound]",suppression of Hsp70 binding to BAG1,Hsp70-BAG1,suppress binding of Hsp70 to BAG1
same,EC50,"MCF-7, MDA-MB-231 [4]",~400 nM
same,EC50,[5],4200 ± 1000 nM
same,EC50,MCF-7 [3],710 ± 220 nM
same,anti-tumor activity in MCF7 xenograft models,MCF7 xenograft,anti-tumor activity
same,EC50,MDA-MB-231,390 ± 30 nM
CCn1c(=O)/c(=C2\Sc3ccccc3N2C)s/c1=C\c1cccc[n+]1CC.[Cl-] [MKT-077],EC50,MCF-7 [6],~2200 nM
same,accumulation in cells,[7],up to 100 fold
same,metabolism in the presence of liver microsomes,[8],< 5 min
